From US20230066011A1, “PYRROLOPYRIMIDINE DERIVATIVE, AND PHARMACEUTICAL COMPOSITION FOR PREVENTING OR TREATING PROTEIN KINASE-RELATED DISEASE COMPRISING SAME AS ACTIVE INGREDIENT” (VORONOI CO., LTD., priority 2019, published 2023)

How the values were obtained:
Format in all cases: biochemical
[1] = molecular target: LRRK2 (G2019S) (Homo sapiens, UniProt Q5S007, G2019S); assay: LRRK2 G2019S enzyme inhibition, ADP-Glo kinase assay; parameters: purchased SignalChem L10-12GG; details: ATP 25 μM
Outline: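 Purified human LRRK2 G2019S (16 ng) with 25 μM ATP and 0.2 μg substrate, 2 h at 25° C. in Tris-HCl pH 7.4, MgCl2, BSA, DTT buffer; compounds at 12 final concentrations, 50 μM down to 0.000001024 μM. ADP-Glo luminescence versus solvent control gave IC50.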

[2] = molecular target: T1, human GST-DYRK1A (Homo sapiens, UniProt Q13627); assay: GST-DYRK1A enzyme inhibition, ADP-Glo kinase assay; details: ATP 10 μM, GST-DYRK1A full length, read-out: DYRK1 IC50
T1 construct: purified human GST-DYRK1A (full length, Thermo Scientifics) enzyme; purchased Thermo Scientifics
Outline: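 Full-length human GST-DYRK1A (10 ng) with 10 μM ATP and specific substrate in 40 mM Tris-HCl pH 7.4, 20 mM MgCl2, 0.5 mg/mL BSA, 50 μM DTT, 1 h at 25 °C. ADP formation read by ADP-Glo luminescence relative to solvent control; IC50 from three data sets.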

[3] = molecular target: T2, human GST-CLK1 (Homo sapiens, UniProt P49759); assay: GST-CLK1 enzyme inhibition, ADP-Glo kinase assay; details: ATP 10 μM, GST-CLK1 129-end
T2 construct: purified human GST-CLK1 (129-end, SignalChem) enzyme; purchased SignalChem
Outline: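 Human GST-CLK1 (129-end, 3 ng) reacted with substrate and 10 μM ATP for 1 h at 25° C in 40 mM Tris-HCl pH 7.4, 20 mM MgCl2, 0.5 mg/mL BSA, 50 μM DTT. ADP-Glo luminescence was normalised to solvent control; IC50 (nM) from 3 data sets.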

Chain of LRRK2 (G2019S) (Q5S007 970-2527 G2019S limits assumed): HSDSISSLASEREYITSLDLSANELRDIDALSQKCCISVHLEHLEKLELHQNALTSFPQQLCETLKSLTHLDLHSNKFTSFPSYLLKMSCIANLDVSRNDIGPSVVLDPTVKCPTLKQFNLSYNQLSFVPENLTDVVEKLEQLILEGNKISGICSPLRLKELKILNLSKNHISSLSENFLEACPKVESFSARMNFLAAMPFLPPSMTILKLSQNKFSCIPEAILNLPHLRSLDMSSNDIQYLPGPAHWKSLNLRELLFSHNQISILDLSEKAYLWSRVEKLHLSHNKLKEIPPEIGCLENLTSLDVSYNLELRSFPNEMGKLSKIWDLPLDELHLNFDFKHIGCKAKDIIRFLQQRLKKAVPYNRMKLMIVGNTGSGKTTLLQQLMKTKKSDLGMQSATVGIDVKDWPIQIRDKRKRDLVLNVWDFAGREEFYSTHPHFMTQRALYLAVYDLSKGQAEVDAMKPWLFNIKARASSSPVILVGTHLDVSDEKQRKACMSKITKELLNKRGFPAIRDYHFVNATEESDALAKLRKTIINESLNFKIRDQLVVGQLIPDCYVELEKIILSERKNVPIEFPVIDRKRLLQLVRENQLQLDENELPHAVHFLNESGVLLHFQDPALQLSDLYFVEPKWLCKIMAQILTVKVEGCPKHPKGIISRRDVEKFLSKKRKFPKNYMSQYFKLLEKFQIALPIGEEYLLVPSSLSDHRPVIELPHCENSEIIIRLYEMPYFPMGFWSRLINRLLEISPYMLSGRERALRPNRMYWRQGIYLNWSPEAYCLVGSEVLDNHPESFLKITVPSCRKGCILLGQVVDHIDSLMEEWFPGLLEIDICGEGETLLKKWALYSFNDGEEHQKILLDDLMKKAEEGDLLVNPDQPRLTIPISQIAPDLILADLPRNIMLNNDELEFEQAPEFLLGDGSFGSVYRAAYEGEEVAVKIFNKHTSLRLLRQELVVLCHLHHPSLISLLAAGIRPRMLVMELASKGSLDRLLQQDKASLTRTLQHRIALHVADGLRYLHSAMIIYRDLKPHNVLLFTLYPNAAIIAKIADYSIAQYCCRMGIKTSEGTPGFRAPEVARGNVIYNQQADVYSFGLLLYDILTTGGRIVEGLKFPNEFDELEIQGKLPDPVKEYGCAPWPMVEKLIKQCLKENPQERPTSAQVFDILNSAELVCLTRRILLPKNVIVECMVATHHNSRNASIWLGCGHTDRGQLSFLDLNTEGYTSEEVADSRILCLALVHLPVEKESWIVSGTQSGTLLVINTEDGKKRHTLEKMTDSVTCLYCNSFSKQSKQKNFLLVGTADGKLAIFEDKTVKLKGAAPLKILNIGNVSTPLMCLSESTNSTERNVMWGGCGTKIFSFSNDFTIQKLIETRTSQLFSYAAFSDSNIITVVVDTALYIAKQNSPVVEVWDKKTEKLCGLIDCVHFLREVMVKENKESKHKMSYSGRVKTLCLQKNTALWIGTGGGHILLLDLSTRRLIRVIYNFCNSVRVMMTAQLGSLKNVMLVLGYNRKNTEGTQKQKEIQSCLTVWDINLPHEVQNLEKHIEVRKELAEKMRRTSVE
T2 sequence (P49759 129-484 limits assumed): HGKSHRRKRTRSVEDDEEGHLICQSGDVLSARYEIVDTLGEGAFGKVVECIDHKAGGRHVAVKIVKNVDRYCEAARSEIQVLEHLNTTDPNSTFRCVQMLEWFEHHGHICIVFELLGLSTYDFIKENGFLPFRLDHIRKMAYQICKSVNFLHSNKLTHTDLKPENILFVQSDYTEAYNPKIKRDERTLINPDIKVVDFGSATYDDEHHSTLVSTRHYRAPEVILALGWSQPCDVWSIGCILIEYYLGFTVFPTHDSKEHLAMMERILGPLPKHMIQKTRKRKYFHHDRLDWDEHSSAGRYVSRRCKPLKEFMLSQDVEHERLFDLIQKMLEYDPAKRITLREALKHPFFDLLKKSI

Row | IC50 [1] | IC50 [2] | IC50 [3] | SMILES
1 | < 100 nM | 301 to 1000 nM | < 100 nM | CC[C@@H](C)Nc1nc(Nc2ccc(C(=O)N3CCOCC3)c3c2OCC3)nc2[nH]cc(C#N)c12 [Example 354, (R)-4-(sec-butylamino)-2-((4-(morpholine-4-carbonyl)-2,3-dihydrobenzo-furan-yl)amino)-7H-pyrrolo[2,3-d]pyrimidine-5-carbonitrile]
2 | < 100 nM | < 100 nM | < 100 nM | CC[C@@H](C)Nc1nc(Nc2ccc(C(=O)N3CCC(N4CCOCC4)CC3)c3c2OCC3)nc2[nH]cc(C#N)c12 [Example 355, (R)-4-(sec-butylamino)-2-((4-(4-morpho-linopiperidine-1-carbonyl)-2,3-dihydro-benzofuran-7-yl)amino)-7H-pyrrolo[2,3-d]pyrimidine-5-carbonitrile]
3 | < 100 nM | 301 to 1000 nM | 301 to 1000 nM | CC[C@H](C)Nc1nc(Nc2ccc(C(=O)N3CCOCC3)c3c2OCC3)nc2[nH]cc(C#N)c12 [Example 356, (S)-4-(sec-butylamino)-2-((4-(morpholine-4-carbonyl)-2,3-dihydro-benzofuran-7-yl)amino)-7H-pyrrolo[2,3-d]pyrimidine-5-carbonitrile]
4 | < 100 nM | 301 to 1000 nM | 301 to 1000 nM | CC[C@H](C)Nc1nc(Nc2ccc(C(=O)N3CCOCC3)c3c2OCCO3)nc2[nH]cc(C(F)(F)F)c12 [Example 381, (S)-(8-((4-(sec-butylamino)-5-(trifluoromethyl)-7H-pyrrolo[2,3-d]pyrimidin-2-yl)amino)-2,3-dihydrobenzo[b] [1,4]dioxin-5-yl)(morpholino) methanone]
5 | < 100 nM | 301 to 1000 nM | < 100 nM | COc1cc(S(C)(=O)=O)ccc1Nc1nc(N[C@H]2CCOC2)c2c(C(F)(F)F)c[nH]c2n1 [Example 384, (S)-N^2-(2-methoxy-4-(methylsulfonyl)phenyl)-N^4-(tetrahydrofuran-3-yl)-5-(trifluoromethyl)-7H-pyrrolo[2,3-d]pyrimidine-2,4-diamine]
6 | < 100 nM | 301 to 1000 nM | 301 to 1000 nM | CC[C@H](C)Nc1nc(Nc2ccc(P(C)(C)=O)cc2OC)nc2[nH]cc(C(F)(F)F)c12 [Example 385, (S)-(4-((4-(sec-butylamino)-5-(trifluoromethyl)-7H-pyrrolo[2,3-d]pyrimidin-2-yl)amino)-3-methoxyphenyl) dimethyl-phosphine oxide]
7 | < 100 nM | 301 to 1000 nM | 301 to 1000 nM | COc1cc(P(C)(C)=O)ccc1Nc1nc(NC2CCCC2)c2c(C(F)(F)F)c[nH]c2n1 [Example 387, (4-((4-(cyclo-pentylamino)-5-(trifluoromethyl)-7H-pyrrolo[2,3-d]pyrimidin-2-yl)amino)-3-methoxy-phenyl)di-methylphosphine oxide]
8 | < 100 nM | < 100 nM | < 100 nM | COc1cc(P(C)(C)=O)ccc1Nc1nc(N[C@@H]2CCOC2)c2c(C(F)(F)F)c[nH]c2n1 [Example 388, (R)-(3-methoxy-4-((4-((tetrahydrofuran-3-yl)amino)-5-(trifluoromethyl)-7H-pyrrolo[2,3-d]pyrimidin-2-yl)amino)phenyl)di-methylphosphine oxide]
9 | < 100 nM | 301 to 1000 nM | < 100 nM | COc1cc(P(C)(C)=O)ccc1Nc1nc(NC2CCOCC2)c2c(C(F)(F)F)c[nH]c2n1 [Example 389, (3-methoxy-4-((4-((tetrahydro-2H-pyran-4-yl)amino)-5-(trifluoromethyl)-7H-pyrrolo[2,3-d]pyrimidin-2-yl)amino)phenyl) dimethyl-phosphine oxide]
10 | < 100 nM | 301 to 1000 nM | < 100 nM | COc1cc(P(C)(C)=O)ccc1Nc1nc(NCC2CC2)c2c(C(F)(F)F)c[nH]c2n1 [Example 390, (4-((4-((cyclo-propylmeth-yl)amino)-5-(trifluoromethyl)-7H-pyrrolo[2,3-d]pyrimidin-2-yl)amino)-3-methoxyphenyl) dimethyl-phosphine oxide]
11 | < 100 nM | 301 to 1000 nM | 301 to 1000 nM | COc1cc(P(C)(C)=O)ccc1Nc1nc(NCC2CCC2)c2c(C(F)(F)F)c[nH]c2n1 [Example 391, (4-((4-((cyclo-butylmethyl)amino)-5-(trifluoromethyl)-7H-pyrrolo[2,3-d]pyrimidin-2-yl)amino)-3-methoxyphenyl) dimethyl-phosphine oxide]
12 | 301 to 1000 nM | 301 to 1000 nM | 301 to 1000 nM | COc1cc(P(C)(C)=O)ccc1Nc1nc(NCC2CCCC2)c2c(C(F)(F)F)c[nH]c2n1 [Example 392, (4-((4-((cyclo-pentylmeth-yl)amino)-5-(trifluoromethyl)-7H-pyrrolo[2,3-d]pyrimidin-2-yl)amino)-3-methoxyphenyl) dimethyl-phosphine oxide]
13 | < 100 nM | 301 to 1000 nM | 301 to 1000 nM | CCCCNc1nc(Nc2ccc(P(C)(C)=O)cc2OC)nc2[nH]cc(C(F)(F)F)c12 [Example 393, (4-((4-(butylamino)-5-(trifluoromethyl)-7H-pyrrolo[2,3-d]pyrimidin-2-yl)amino)-3-methoxyphenyl) dimethyl-phosphine oxide]
14 | < 100 nM | 101 to 300 nM | < 100 nM | CCNc1nc(Nc2ccc(P3(=O)CCN(C4CC4)CC3)cc2OC)nc2[nH]cc(C(F)(F)F)c12 [Example 398, 1-cyclopropyl-4-(4-((4-(ethylamino)-5-(trifluoromethyl)-7H-pyrrolo[2,3-d]pyrimidin-2-yl)amino)-3-methoxyphenyl)-1,4-azaphosphinane 4-oxide]
15 | 101 to 300 nM | 301 to 1000 nM | 101 to 300 nM | COc1cc(P2(=O)CCN(C3CC3)CC2)ccc1Nc1nc(NC2CCC2)c2c(C(F)(F)F)c[nH]c2n1 [Example 406]
16 | < 100 nM | 301 to 1000 nM | < 100 nM | COc1cc(P2(=O)CCN(C3CC3)CC2)ccc1Nc1nc(N[C@H]2CCOC2)c2c(C(F)(F)F)c[nH]c2n1 [Example 417, (S)-1-cyclo-propyl-4-(3-methoxy-4-((4-((tetrahydrofuran-3-yl)amino)-5-(trifluoromethyl)-7H-pyrrolo[2,3-d]pyrimidin-2-yl)amino)phenyl)-1,4-azaphosphinane 4-oxide]
17 | < 100 nM | 301 to 1000 nM | < 100 nM | COc1cc(P2(=O)CCN(C3CC3)CC2)ccc1Nc1nc(NC2CCOCC2)c2c(C(F)(F)F)c[nH]c2n1 [Example 419, 1-cyclopropyl-4-(3-methoxy-4-((4-((tetrahydro-2H-pyran-4-yl)amino)-5-(trifluoro)-7H-pyrrolo[2,3-d]pyrimidin-2-yl)amino)phenyl)-1,4-azaphosphinane 4-oxide]
18 | < 100 nM | 301 to 1000 nM | 301 to 1000 nM | COc1cc(P2(=O)CCN(C3CC3)CC2)ccc1Nc1nc(NCC2CC2)c2c(C(F)(F)F)c[nH]c2n1 [Example 421, 1-cyclopropyl-4-(4-((4-((cyclo-propylmeth-yl)amino)-5-(trifluoromethyl)-7H-pyrrolo[2,3-d]pyrimidin-2-yl)amino)-3-methoxyphenyl)-1,4-azaphosphinane 4-oxide]
19 | < 100 nM | 301 to 1000 nM | 301 to 1000 nM | COc1cc(P2(=O)CCN(C3CC3)CC2)ccc1Nc1nc(NCC2CCC2)c2c(C(F)(F)F)c[nH]c2n1 [Example 423, 4-(4-((4-((cyclobutyl-methyl)amino)-5-(trifluoromethyl)-7H-pyrrolo[2,3-d]pyrimidin-2-yl)amino)-3-methoxyphenyl)-1-cyclopropyl-1,4-aza-phosphinane 4-oxide]
20 | < 100 nM | 301 to 1000 nM | 301 to 1000 nM | O=C(c1ccc(Nc2nc(NCC3CCCC3)c3c(C(F)(F)F)c[nH]c3n2)c2c1OCCO2)N1CCN(C2COC2)CC1 [Example 425, (8-((4-((cyclo-pentylmeth-yl)amino)-5-(trifluoromethyl)-7H-pyrrolo[2,3-d]pyrimidin-2-yl)amino)-2,3-dihydrobenzo[b] [1,4]dioxin-5-yl) (4-(oxetan-3-yl)piperazin-1-yl)methanone]
21 | < 100 nM | < 100 nM | < 100 nM | COc1cc(P2(=O)CCN(C3CC3)CC2)ccc1Nc1nc(NCCS(C)(=O)=O)c2c(C(F)(F)F)c[nH]c2n1 [Example 426, 1-cyclopropyl-4-(3-methoxy-4-((4-((2-(methyl-sulfonyl)eth-yl)amino)-5-(trifluoromethyl)-7H-pyrrolo[2,3-d]pyrimidin-2-yl)amino)phenyl)-1,4-azaphosphinane 4-oxide]
22 | < 100 nM | < 100 nM | < 100 nM | CS(=O)(=O)CCNc1nc(Nc2ccc(C(=O)N3CCN(C4COC4)CC3)c3c2OCCO3)nc2[nH]cc(C(F)(F)F)c12 [Example 427, (8-((4-((2-(methylsulfonyl)ethyl)amino)-5-(trifluoromethyl)-7H-pyrrolo[2,3-d]pyrimidin-2-yl)amino)-2,3-dihydrobenzo[b] [1,4]dioxin-5-yl) (4-(oxetan-3-yl)piperazin-1-yl)methanone]
